Legend:
[1] = In vitro stability (half-life) in human plasma; format: in vitro ADME; conditions: male, human plasma pH 7.4 with anticoagulant, 37° C., read-out: T1/2 (minutes) Human
Method: (§1) Certain compounds from Tables 1 and 2 and CXL-1020 were tested for their stability in phosphate buffered saline (PBS) and plasma. The assay system comprised (i) PBS, or plasma from rat, dog or human (at least 3 donors, male, pooled) at pH 7.4, and (ii) for tests conducted in plasma, an anticoagulant (sodium heparin or sodium citrate). Each test compound (5 μM) was incubated in PBS or plasma at 37° C. on a THERMOMIXER® with shaking. Three samples (n=3) were taken at each of seven sampling time points: 0, 10, 30, 60, 90, 180 and 360 minutes. The samples were immediately combined with 3 volumes (i.e., 3 times the volume of PBS or plasma) of acetonitrile containing 1% formic acid and an internal standard to terminate the reaction. AB SCIEX API 3000 LC-MS/MS analysis of the test compounds was performed without a standard curve. Half-lives (T1/2) of the test compounds were determined from graphs of the percent remaining values using the peak area response ratio. For compounds tested multiple times, the value provided in the Table represents an average of the replicate assays.

[2] = In vitro stability (half-life) in dog plasma; format: in vitro ADME; conditions: dog plasma pH 7.4 with anticoagulant, 37° C.; for half-life at 5 μM: male, dog, plasma, pH 7.4, 5 μM, read-out: T1/2 (minutes) Dog
Method: as §1

[3] = In vitro stability (half-life) in phosphate buffered saline (PBS) pH 7.4; format: physicochemical; conditions: pH 7.4, 5 μM, PBS pH 7.4, 37° C., read-out: T1/2 (minutes) PBS
Method: as §1

[4] = In vitro stability (half-life) in rat plasma; format: in vitro ADME; conditions: rat plasma pH 7.4 with anticoagulant, 37° C.; for half-life at 5 μM: male, rat, plasma, pH 7.4, 5 μM, read-out: T1/2 (minutes) Rat; for T1/2 (minutes) Rat: 5 μM
Method: as §1

[5] = HNO production determined via N2O quantification (GC headspace analysis); format: physicochemical; conditions: PBS, 37° C.
Excerpt: Nitrous oxide (N2O) is produced via the dimerization and dehydration of HNO, and is the most common marker for nitroxyl production (Fukuto et al., Chem. Res. Toxicol. 18:790-801 (2005)). […] Using either nitrous oxide gas or Angeli's salt (AS) as a standard, the relative amounts of N2O released from compounds of the disclosure was examined via gas chromatography (GC) headspace analysis.
A procedure for determining the relative amounts of N2O released from compounds of the disclosure is as follows. GC was performed on an Agilent gas chromatograph equipped with a split injector (10:1 splitting), microelectron capture detector, and a HP-MOLSIV 30 m×0.32 mm×25 μm molecular sieve capillary column. Helium was used as the carrier (4 mL/min) gas and nitrogen was used as the make-up (20 mL/min) gas. The injector oven and the detector oven were kept at 200° C. and 325° C., respectively. All nitrous oxide analyses were performed with the column oven held at a constant temperature of 200° C.
All gas injections were made using an automated headspace analyzer. Vial pressurization was 15 psi. The analyzer's sample oven, sampling valve, and transfer line were kept at 40° C., 45° C., and 50° C., respectively. The oven stabilization, vial pressurization, loop fill, loop equilibration, and sample injection times were 1.00 min., 0.20 min., 0.20 min., 0.05 min., and 1.00 min., respectively.
All determinations used a batch of nominal 20 mL headspace vials with volumes pre-measured for sample uniformity (actual vial volume varied by <2.0% relative standard deviation (n=6)). The average vial volume for the batch was determined from six randomly-selected vials by calculating the weight difference between the capped and sealed empty (i.e., air-filled) vial and the capped and sealed deionized water-filled vial using the known density of deionized water, then averaging. Blanks were prepared by sealing and capping two vials then purging each for 20 seconds with a gentle argon stream. Nitroxyl standards were prepared by sealing and capping four vials then purging each for 1 minute with a gentle stream, from a gas cylinder, of a 3000 ppm […].
CXL-1020 (N-hydroxy-2-methanesulfonylbenzene-1-sulfonamide) “standards” were prepared by, in duplicate, accurately weighing 10±0.5 mg of CXL-1020 and adding it to each 4 mL vial. Using an auto pipette, 1 mL of argon-purged anhydrous DMF (Sigma-Aldrich) was added to each 4 mL vial to form a CXL-1020 stock solution for each sample and the vials were capped and shaken and/or sonicated to insure complete dissolution upon visual observation. Using an auto pipette, 20 mL vials were charged with 5 mL of PBS (purged for at least 30 min. with argon prior to use), purged with argon for at least 20 sec., and sealed with a rubber septum. Using a 50 μL syringe, 50 μL of the CXL-1020 stock solution was injected into each 20 mL vial containing the PBS.
Samples were prepared as follows. In duplicate, 18±1 mg of each sample was accurately weighed into each 4 mL vial. Using an auto pipette, 1 mL of argon-purged anhydrous DMF was added to each 4 mL vial to form a sample stock solution for each sample and the vials were capped and shaken and/or sonicated to insure complete sample dissolution upon visual observation. Using an auto pipette, 20 mL vials were charged with 5 mL of PBS (purged for at least 30 min. with argon prior to use), purged with argon for at least 20 sec., and sealed with a rubber septum. The vials were equilibrated for at least 10 min. at 37° C. in a dry block heater. Thereafter, using a 50 μL syringe, 50 μL of a sample stock solution was injected into each 20 mL vial containing the PBS. The vials were then held at 37° C. in the dry block heater for a time period such that the sum of the time spent in the dry block heater plus the time spent in the automated headspace analyzer oven before sample injection equaled the desired incubation time. […]

| half-life at 5 μM [1] [min] | half-life at 5 μM [2] [min] | half-life at 5 μM [3] [min] | half-life at 5 μM [4] [min] | T1/2 (minutes) Rat [4] [min] | T1/2 (minutes) Dog ([2]; 5 μM) [min] | Compound | Relative N2O Yield (90 minutes incubation) [5] [%] | Relative N2O Yield (360 minutes incubation) [5] [%] |
| --- | --- | --- | --- | --- | --- | --- | --- | --- |
| 71 | 38 | 98 | 37 | – | – | Cc1oncc1S(=O)(=O)NO [Compound 3, N-Hydroxy-5-methyl-1,2-oxazole-4-sulfonamide] | 45 | 56 |
| 24 | 28 | 136 | 104 | – | – | CC(C)NC(=O)c1cc(S(=O)(=O)NO)cs1 [Compound 5, 4-(Hydroxysulfamoyl)-N-(propan-2-yl)thiophene-2-carboxamide] | 48 | 72 |
| – | 56 | 224 | – | – | – | Cc1cc(S(=O)(=O)NO)c(C(F)(F)F)o1 [Compound 7, N-Hydroxy-5-methyl-2-(trifluoromethyl)furan-3-sulfonamide] | 51 | – |
| – | 27 | 42 | – | – | – | CS(=O)(=O)c1cc(S(=O)(=O)NO)cs1 [Compound 8, N-Hydroxy-5-methanesulfonylthiophene-3-sulfonamide] | 77 | – |
| 45 | – | 53 | 29 | – | – | O=S(=O)(NO)c1cccnc1 [Compound 26, N-Hydroxypyridine-3-sulfonamide] | 73.5 | – |
| 99 | – | – | – | 75 | – | Cc1noc(C)c1S(=O)(=O)NO [Compound 27, N-Hydroxy-3,5-dimethyl-1,2-oxazole-4-sulfonamide] | 35.5 | 66 |
| – | – | 34 | 8 | – | – | Cc1ccc(F)c(S(=O)(=O)NO)c1 [Compound 56, 2-Fluoro-N-hydroxy-5-methylbenzene-1-sulfonamide] | 72 | 78 |
| – | 24 | 101 | 49 | – | – | O=S(=O)(NO)c1ccc(F)c(Cl)c1 [Compound 87, 3-Chloro-4-fluoro-N-hydroxybenzene-1-sulfonamide] | 53 | 79 |
| – | 16 | 38 | – | – | – | O=S(=O)(NO)c1cccc(S(=O)(=O)NO)c1 [Compound 88, 1-N,3-N-Dihydroxybenzene-1,3-disulfonamide] | 53 | 100 |
| – | 34 | 76 | 38.4 | – | – | O=S(=O)(NO)c1cccc(Br)c1 [Compound 89, 3-Bromo-N-hydroxybenzene-1-sulfonamide] | – | – |
| – | 21 | 25.1 | 6.8 | – | – | Cc1ccc(F)cc1S(=O)(=O)NO [Compound 90, 5-Fluoro-N-hydroxy-2-methylbenzene-1-sulfonamide] | 90 | – |
| – | 54.4 | 211 | – | 176 | – | Cc1noc(C)c1S(=O)(=O)NO [Compound 91, N-Hydroxy-3,5-dimethyl-1,2-oxazole-4-sulfonamide] | – | – |
| 40 | 19 | 58 | 35 | 35.1 | 18.5 | O=S(=O)(NO)c1cccc(OC(F)(F)F)c1 [Compound 92, N-Hydroxy-3-(trifluoromethoxy)benzene-1-sulfonamide] | 59 | – |
| 35 | – | 68 | 38 | – | – | CS(=O)(=O)c1ccc(S(=O)(=O)NO)cc1 [Compound 93, N-Hydroxy-4-methanesulfonylbenzene-1-sulfonamide] | 86 | – |
